Test results: patent EP4818172A1, “ASCORBIC ACID DERIVATIVES AND COSMETIC CONTAINING SAME” (Seiwa Kasei Co., Ltd., priority 2023, dated 2025)

Columns and labels:
[1] = test system: Normal human epidermal keratinocytes; assay: Antioxidant effect: ROS production inhibition after H2O2 (DCFHDA probe); assay type: cell-based; conditions: sample at 10 mM or less, 24 hours, then 0.2 mM H2O2 for 2 hours, N=4
Description: Normal human epidermal keratinocytes were seeded onto a 96-well plate using KG2 medium at a cell density of 2.0 × 10^4 cells/well. After 24 hours of pre-incubation, samples adjusted to a predetermined concentration in KG2 medium were added to each well. After 24 hours of incubation, the medium was removed, followed by washing with HBSS(-) and the incorporation of the ROS-reactive fluorescent probe DCFHDA for 30 minutes. The cells were again washed with HBSS(-), treated with 0.2 mM H2O2, and incubated for 2 hours. The fluorescence intensity was measured, and the amount of ROS produced per unit protein was calculated by dividing the fluorescence intensity by the amount of protein quantified by the BCA method, resulting in an analytical value of 1. Furthermore, the amount of ROS production calculated without adding the sample adjusted to a predetermined concentration using the above test method was set to analytical value 2; and the amount of ROS production calculated without adding the sample or 0.2 mM H2O2 was set to analytical value 3.
ROS production inhibition rate (%) was calculated using the following formula. The higher the ROS production inhibition rate, the greater the antioxidant effect can be evaluated to be.
ROS production inhibition rate (%) = [(analysis value 2) - (analysis value 1)] / [(analysis value 2) - (analysis value 3)] × 100
The ROS production inhibition rate when the sample was measured at a concentration of 10 mM or less was evaluated as follows. Note that the measurement was performed in N=4. • <20%: + • 20-40%: ++ • 40%<: +++ [Table 21]

[2] = test system: Normal human dermal fibroblasts; assay: Collagen production promoting effect (ELISA of free collagen in supernatant); assay type: cell-based; conditions: sample at 10 mM or less, cultured 48 hours, % of control group (100%), N=3
Description: Normal human dermal fibroblasts were prepared in D-MEM containing 5% (v/v) fetal bovine serum to a cell density of 2.5 × 10^4 cell s /well, and then pre-incubated for 24 hours on a 96-well plate. After removing the medium, samples prepared to a predetermined concentration in D-MEM containing 5% (v/v) fetal bovine serum were added to each well and cultured for 48 hours. After the culture was completed, the amount of free collagen in the supernatant was quantified by ELISA. Measurements were performed in triplicate (N=3).
The amount of collagen produced when the sample was measured at a concentration of 10 mM or less was compared with that of the control group, and the results (% values when the control group was set to 100%) are shown in Table 17 based on the following criteria. • <100%: ± • 100-140%: + • 140%<: ++ [Table 17]

[3] = Stability test -2: odor and coloration of cream stored at 50°C; assay type: physicochemical; conditions: Test Example 2, cream stored at 50°C, total score of 10 panelists
In short: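 Creams at pH 7 or 9 containing the test samples stored at 50°C for 4 weeks. Odor and coloration scored by 10 panelists against the freshly prepared cream; total scores classed as ○ (25 or more), △ (16-24) or × (15 or less).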

[4] = Stability test -2: residual rate in cream of pH 7 or 9 stored at 50°C; assay type: physicochemical; conditions: cream with 4.0 W/W% derivative
In short: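 Each derivative was formulated into a cream by heating and mixing two component phases, cooling, then adding a third component, giving a final pH of 7 or 9. The creams were kept at 50°C for up to 4 weeks, and the remaining amount of derivative was measured to give a residual rate.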

[5] = test system: Normal human dermal fibroblasts (NHDF); assay: Hyaluronic acid production promoting effect (ELISA of supernatant); assay type: cell-based; conditions: sample at 10 mM or less in serum-free D-MEM, cultured 48 hours, % of control group (100%), N=3
In short: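 NHDF pre-incubated 24 h in D-MEM/5% FBS, then exposed to samples (10 mM or less) in serum-free D-MEM for 48 h. Supernatant hyaluronic acid measured by ELISA, triplicate. Output expressed as % of untreated control (control = 100%), graded ±/+/++ at <100%, 100-120%, >120%.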

| Compound | Antioxidant effect (ROS production inhibition rate) [1] | Collagen production-promoting effect [2] | Coloration After 2 weeks [3] | Odor After 2 weeks [3] | Coloration After 4 weeks [3] | Odor After 4 weeks [3] | Residual Rate After 2 weeks ([4]; pH7, stored at 50°C) | Residual Rate After 4 weeks ([4]; pH7, stored at 50°C) | Residual Rate After 2 weeks ([4]; pH9, stored at 50°C) | Residual Rate After 4 weeks ([4]; pH9, stored at 50°C) | Hyaluronic acid production-promoting effect [5] |
| --- | --- | --- | --- | --- | --- | --- | --- | --- | --- | --- | --- |
| CCCC(=O)OCC(O)C1OC(=O)C2=C1OCCCCO2 (stereo not shown) [synthesis example 9, 6-O-butanoyl-2,3-O-(1,4-butanediyl) ascorbic acid] | ++ (20-40%) | + (100-140%) | ○ (Total score of 10 panelists is 25 or more) | ○ (Total score of 10 panelists is 25 or more) | ○ (Total score of 10 panelists is 25 or more) | Δ | ⊚ (95% or more) | ⊚ (95% or more) | ⊚ (95% or more) | ⊚ (95% or more) | ++ (120%<) |
| CC(C)CCCCCCCCCCCCCCC(=O)OC[C@H](O)[C@H]1OC(=O)C2=C1OCCCCO2 [synthesis example 17, 6-O-isostearoyl-2,3-O-(1,4-butanediyl) ascorbic acid] | + (<20%) | ++ (140%<) | ○ (Total score of 10 panelists is 25 or more) | ○ (Total score of 10 panelists is 25 or more) | ○ (Total score of 10 panelists is 25 or more) | Δ | ⊚ (95% or more) | ⊚ (95% or more) | ⊚ (95% or more) | ⊚ (95% or more) | ++ (120%<) |
| CCCCCCCC(=O)OCC(OC(=O)CCCCCCC)C1OC(=O)C2=C1OCCCO2 (stereo not shown) [synthesis example 23, 5,6-O-dioctanoyl-2,3-O-(1,3-propanediyl) ascorbic acid] | + (<20%) | ++ (140%<) | ○ (Total score of 10 panelists is 25 or more) | ○ (Total score of 10 panelists is 25 or more) | ○ (Total score of 10 panelists is 25 or more) | Δ | ⊚ (95% or more) | ⊚ (95% or more) | ⊚ (95% or more) | ⊚ (95% or more) | + (100-120%) |
| CCCCCCCCCCCCCCCC(=O)OCC(O)C1OC(=O)C2=C1OCCCCO2 (stereo not shown) [synthetic example 15, 6-O-palmitoyl-2,3-O-(1,4-butanediyl) ascorbic acid] | + (<20%) | ++ (140%<) | ○ (Total score of 10 panelists is 25 or more) | ○ (Total score of 10 panelists is 25 or more) | ○ (Total score of 10 panelists is 25 or more) | Δ | ⊚ (95% or more) | ⊚ (95% or more) | ⊚ (95% or more) | ⊚ (95% or more) | ++ (120%<) |
| CCCC(=O)OCC(OC(=O)CCC)C1OC(=O)C2=C1OCCCCO2 (stereo not shown) [synthesis example 10, 5,6-O-dibutanoyl-2,3-O-(1,4-butanediyl) ascorbic acid] | + (<20%) | ++ (140%<) | ○ (Total score of 10 panelists is 25 or more) | ○ (Total score of 10 panelists is 25 or more) | ○ (Total score of 10 panelists is 25 or more) | Δ | ⊚ (95% or more) | ⊚ (95% or more) | ⊚ (95% or more) | ⊚ (95% or more) | ++ (120%<) |
